Assay results as given in US7998965B2, “Glutamate aggrecanase inhibitors” (Wyeth LLC, priority 2005, dated 2011).
pIC50, pKi: −log10 of the molar value. Read-outs that look alike come from different tables or passages of the source.

Assays:
[1] = target: T1, purified recombinant human Aggrecanase-1 (rAgg1) (Homo sapiens, UniProt O75173); experiment: In vitro fluorescence screen for Aggrecanase-1 inhibitors; assay type: biochemical; details: for pIC50: read-out: Agg1 IC50
T1 sequence (O75173 213-837): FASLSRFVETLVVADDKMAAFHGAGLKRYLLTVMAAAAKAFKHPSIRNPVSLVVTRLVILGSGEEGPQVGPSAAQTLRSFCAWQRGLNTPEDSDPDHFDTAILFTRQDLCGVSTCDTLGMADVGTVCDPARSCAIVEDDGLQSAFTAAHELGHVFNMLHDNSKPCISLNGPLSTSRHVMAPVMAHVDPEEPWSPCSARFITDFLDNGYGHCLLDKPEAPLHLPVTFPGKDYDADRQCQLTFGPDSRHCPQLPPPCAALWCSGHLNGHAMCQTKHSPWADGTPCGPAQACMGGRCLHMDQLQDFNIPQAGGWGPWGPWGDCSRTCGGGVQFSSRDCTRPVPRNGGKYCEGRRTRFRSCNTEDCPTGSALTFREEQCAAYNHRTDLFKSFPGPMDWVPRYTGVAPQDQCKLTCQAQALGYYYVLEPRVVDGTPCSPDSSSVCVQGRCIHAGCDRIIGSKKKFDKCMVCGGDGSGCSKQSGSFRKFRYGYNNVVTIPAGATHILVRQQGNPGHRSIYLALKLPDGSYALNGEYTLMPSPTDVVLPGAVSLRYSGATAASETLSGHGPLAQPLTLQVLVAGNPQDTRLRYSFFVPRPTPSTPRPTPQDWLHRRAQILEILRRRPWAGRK

[2] = target: T2, purified recombinant human Aggrecanase-2 (Ag2t-Phe628-Strep) (Homo sapiens, UniProt Q9UNA0); experiment: In vitro fluorescence screen for Aggrecanase-2 inhibitors; assay type: biochemical; details: for pIC50: read-out: Agg 2 IC50
T2 construct: the form used is denoted as Ag2t-Phe628-Strep (MW=41,737)
T2 sequence (Q9UNA0 262-628): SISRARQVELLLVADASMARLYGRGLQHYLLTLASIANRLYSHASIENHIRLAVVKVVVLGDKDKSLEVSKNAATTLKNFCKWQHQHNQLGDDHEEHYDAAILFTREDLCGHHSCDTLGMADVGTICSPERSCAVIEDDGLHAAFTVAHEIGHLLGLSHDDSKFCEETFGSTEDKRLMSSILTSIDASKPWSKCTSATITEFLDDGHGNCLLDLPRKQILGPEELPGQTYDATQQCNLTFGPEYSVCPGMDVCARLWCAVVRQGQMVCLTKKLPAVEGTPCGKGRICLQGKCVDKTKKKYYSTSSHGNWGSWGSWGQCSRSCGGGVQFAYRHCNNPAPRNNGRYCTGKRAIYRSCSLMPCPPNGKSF

MMP-8 = MMP-8 (Homo sapiens, UniProt P22894); experiment: MMP-8 of Table 3; assay type: biochemical; details: unit inferred
MMP-8, sequence (P22894 101-467, species assumed): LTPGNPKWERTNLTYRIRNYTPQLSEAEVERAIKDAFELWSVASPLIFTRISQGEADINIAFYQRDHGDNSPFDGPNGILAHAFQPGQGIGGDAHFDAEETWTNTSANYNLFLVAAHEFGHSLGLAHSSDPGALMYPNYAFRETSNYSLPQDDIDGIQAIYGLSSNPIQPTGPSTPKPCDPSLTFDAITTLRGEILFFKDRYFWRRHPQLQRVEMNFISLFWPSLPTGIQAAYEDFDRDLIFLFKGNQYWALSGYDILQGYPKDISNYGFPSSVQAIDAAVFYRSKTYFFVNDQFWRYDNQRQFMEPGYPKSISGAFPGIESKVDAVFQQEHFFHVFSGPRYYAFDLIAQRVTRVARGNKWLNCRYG

MMP-12 = MMP-12 (Homo sapiens, UniProt P39900); experiment: MMP-12 of Table 3; assay type: biochemical; details: unit inferred
MMP-12, sequence (P39900 106-470): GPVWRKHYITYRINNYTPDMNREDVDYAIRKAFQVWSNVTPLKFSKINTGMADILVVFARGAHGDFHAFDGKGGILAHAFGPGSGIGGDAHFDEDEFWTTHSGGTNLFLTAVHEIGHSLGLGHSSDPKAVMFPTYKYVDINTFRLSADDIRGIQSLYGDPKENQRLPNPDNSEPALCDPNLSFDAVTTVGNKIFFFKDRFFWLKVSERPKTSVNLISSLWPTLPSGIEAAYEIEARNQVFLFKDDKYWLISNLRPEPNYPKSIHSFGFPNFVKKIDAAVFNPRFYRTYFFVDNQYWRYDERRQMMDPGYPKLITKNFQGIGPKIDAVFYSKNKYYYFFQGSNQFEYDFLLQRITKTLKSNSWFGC

recombinant human MMP-2 = target: T3, recombinant human MMP-2 (Homo sapiens, UniProt P08253); experiment: In vitro fluorescence assay of MMP-2 activity
T3 sequence (P08253 110-660): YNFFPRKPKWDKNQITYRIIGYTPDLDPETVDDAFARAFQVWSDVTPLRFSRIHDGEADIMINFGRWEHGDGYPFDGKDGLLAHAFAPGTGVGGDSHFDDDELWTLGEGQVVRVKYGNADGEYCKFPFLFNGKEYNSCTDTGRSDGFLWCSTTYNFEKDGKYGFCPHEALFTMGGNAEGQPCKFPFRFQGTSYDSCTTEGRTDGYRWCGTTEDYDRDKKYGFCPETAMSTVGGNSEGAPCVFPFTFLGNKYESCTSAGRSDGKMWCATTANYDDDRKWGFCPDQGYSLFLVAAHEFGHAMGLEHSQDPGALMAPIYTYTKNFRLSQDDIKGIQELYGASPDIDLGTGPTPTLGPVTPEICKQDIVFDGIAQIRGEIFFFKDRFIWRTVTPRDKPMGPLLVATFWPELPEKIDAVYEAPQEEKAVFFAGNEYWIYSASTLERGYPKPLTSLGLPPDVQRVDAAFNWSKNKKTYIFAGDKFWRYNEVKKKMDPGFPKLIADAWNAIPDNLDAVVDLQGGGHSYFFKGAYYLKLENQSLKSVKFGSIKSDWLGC

[3] = target: T4, recombinant human catalytic domain of MMP-13 (Homo sapiens, UniProt P45452); experiment: In vitro fluorescence assay of MMP-13 activity; assay type: biochemical; details: Table 1; for pIC50: unit inferred
T4 construct: catalytic domain of MMP-13 (165 amino acids, residues 104-268, 19 kDa)

[4] = target: T5, recombinant human catalytic domain of MMP-14 (Homo sapiens, UniProt P50281); experiment: In vitro fluorescence assay of MMP-14 activity; assay type: biochemical; details: Table 1; unit inferred
T5 construct: 177 amino acids corresponding to Tyr89-Gly265 of mature human enzyme; purchased Chemicon International, Inc. CC1041

[5] = tested on: bovine articular cartilage treated with Interleukin 1 alpha (IL-1α); experiment: Bovine articular cartilage explant cultures: inhibition of degradation of proteoglycan; assay type: cell-based; details: inhibitory effect expressed as percentage, concentration not printed
In short: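 Bovine metacarpal cartilage discs (6 mm), equilibrated in serum-free DMEM-based medium, were treated with 5 ng/ml IL-1 plus compound (working solutions 0.1-10 μg/ml), with medium collected and replaced on days 1, 2 and 3. Released proteoglycan was measured by DMMB absorbance at 520 nm against chondroitin sulphate standards, expressed as μg per mg cartilage, and inhibition given as percentage.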

MMP-1 = target: T6, MMP-1 (Homo sapiens, UniProt P03956); experiment: MMP-1 of Table 1; assay type: biochemical; details: for MMP-1: unit not given; for pIC50: unit inferred
T6 sequence (P03956 100-469): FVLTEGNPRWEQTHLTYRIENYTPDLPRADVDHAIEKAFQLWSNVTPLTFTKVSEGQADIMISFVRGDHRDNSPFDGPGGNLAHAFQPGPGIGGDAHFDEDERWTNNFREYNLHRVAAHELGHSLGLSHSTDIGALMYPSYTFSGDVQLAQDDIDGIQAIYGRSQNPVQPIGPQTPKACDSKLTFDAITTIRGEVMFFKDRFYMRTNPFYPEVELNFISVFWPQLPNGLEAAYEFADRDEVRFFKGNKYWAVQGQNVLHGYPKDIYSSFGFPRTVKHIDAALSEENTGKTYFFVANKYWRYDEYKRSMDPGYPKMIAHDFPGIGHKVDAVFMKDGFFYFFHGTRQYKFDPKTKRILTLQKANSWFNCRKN

[6] = Table 1, enzyme not given, column follows Agg1 IC50, read-out: Ki
[7] = Table 1, first of two columns headed bovine
[8] = Table 1, second of two columns headed bovine

Structure (SMILES)	pIC50 ([1]; Table 3)	pKi ([1]; Table 3, read-out: Ki Agg1)	pIC50 ([2]; Table 3)	pKi ([2]; Table 3, read-out: Ki Agg2)	pIC50 (MMP-8)	pIC50 (MMP-12)	pIC50 (recombinant human MMP-2)	pKi [1, 6]	pIC50 ([1]; Table 1)	pIC50 ([2]; Table 1)	pIC50 [3]	pIC50 [4]	MMP-1 (MMP-1)	pIC50 (MMP-1)	MMP-13 ([3]; unit not given)	bovine [5, 7] [%]	bovine [5, 8] [%]
CC(C)(Cc1ccccc1)NC(=O)[C@H](CCC(=O)O)NC(=O)c1ccc(-c2ccc(Br)s2)cc1 [Example 8OOOOOOOOO, N^2-[4-(5-bromo-2-thienyl)benzoyl]-N-(1,1-dimethyl-2-phenylethyl)-L-α-glutamine]	> 7.52	8.57	~7.52	7.18	6.46	6.43	6.14										
COc1cc(CNC(=O)[C@H](CCC(=O)O)NC(=O)c2ccc(-c3ccccc3)cc2)cc(OC)c1OC [Example 8R, N^2-(1,1′-biphenyl-4-ylcarbonyl)-N^1-(3,4,5-trimethoxybenzyl)-L-α-glutamine]							4.98	8.30	7.80	7.30	4.37	~4.66	no inh			86	78
CN(C)c1ccc(CNC(=O)[C@H](CCC(=O)O)NC(=O)c2ccc(-c3ccccc3)cc2)cc1 [Example 8ZZZ, N^2-(biphenyl-4-ylcarbonyl)-N^1-[4-(dimethylamino)benzyl]-L-α-glutamine]							4.89		7.00	5.80		< 3.70		< 4.30	no inh	72	34
O=C(O)CC[C@H](NC(=O)c1ccc(-c2ccccc2)cc1)C(=O)NCc1cccc(-c2cccs2)c1 [Example 10N, N^2-(1,1′-biphenyl-4-ylcarbonyl)-N^1-(3-thien-2-ylbenzyl)-L-α-glutamine]							5.12	7.55	7.72	6.01	< 4.30	< 3.70		< 3.70		65	24
Cc1cc(C)cc(-c2ccc(C(=O)N[C@@H](CCC(=O)O)C(=O)NCc3ccccc3)cc2)c1 [Example 13A, N^1-benzyl-N^2-[(3′,5′-dimethyl-1,1′-biphenyl-4-yl)carbonyl]-L-α-glutamine]							~4.17		5.82	~4.17	< 4.00	< 4.00		< 4.00		37	18
CCOc1cccc(-c2ccc(C(=O)N[C@@H](CCC(=O)O)C(=O)NCc3ccccc3)cc2)c1 [Example 13D, N^1-benzyl-N^2-[(3′-ethoxy-1,1′-biphenyl-4-yl)carbonyl]-L-α-glutamine]							< 3.70		6.12	~4.59	< 3.70	< 4.00		< 4.00		51	25

Now from value to molecule, other results behind:

pIC50 ([1]; Table 3)	pKi ([1]; Table 3, read-out: Ki Agg1)	pIC50 ([2]; Table 3)	pKi ([2]; Table 3, read-out: Ki Agg2)	pIC50 (MMP-8)	pIC50 (MMP-12)	pIC50 (recombinant human MMP-2)	pKi [1, 6]	pIC50 ([1]; Table 1)	pIC50 ([2]; Table 1)	pIC50 [3]	pIC50 [4]	MMP-1 (MMP-1)	pIC50 (MMP-1)	MMP-13 ([3]; unit not given)	Structure (SMILES)	bovine [5, 7] [%]	bovine [5, 8] [%]
						5.21	7.51	7.96	6.40	4.43	~4.66	no inh			COc1cccc(CNC(=O)[C@H](CCC(=O)O)NC(=O)c2ccc(-c3ccccc3)cc2)c1 [Example 8Q, N^2-(1,1′-biphenyl-4-ylcarbonyl)-N^1-(3-methoxybenzyl)-L-α-glutamine]	66	24
						5.50	6.61	6.82	5.89	< 3.70	~4.60	no inh			O=C(O)CC[C@H](NC(=O)c1ccc(-c2ccccc2)cc1)C(=O)NCc1ccc(Cl)cc1Cl [Example 8S, N^2-(1,1′-biphenyl-4-ylcarbonyl)-N^1-(2,4-dichlorobenzyl)-L-α-glutamine]	51	40
						5.46		6.80	5.96	~4.17	~4.52		< 4.00		CSc1ccc(CNC(=O)[C@H](CCC(=O)O)NC(=O)c2ccc(-c3ccccc3)cc2)cc1 [Example 8V, N^2-(1,1′-biphenyl-4-ylcarbonyl)-N^1-[4-(methylthio)benzyl]-L-α-glutamine]	73	45
						< 4.70	7.27	7.37	5.96	~4.70	< 3.70		< 4.30		C=Cc1cccc(CNC(=O)[C@H](CCC(=O)O)NC(=O)c2ccc(-c3ccccc3)cc2)c1 [Example 10M, N^2-(1,1′-biphenyl-4-ylcarbonyl)-N^1-(3-vinylbenzyl)-L-α-glutamine]	67	35
						< 4.70	6.73	7.11	5.72	< 4.70	< 3.70		< 4.30		C=Cc1ccc(CNC(=O)[C@H](CCC(=O)O)NC(=O)c2ccc(-c3ccccc3)cc2)cc1 [Example 10R, N^2-(1,1′-biphenyl-4-ylcarbonyl)-N^1-(4-vinylbenzyl)-L-α-glutamine]	41	0
						~6.00		6.96	~6.10	~5.30	~5.70		~5.70		O=C(O)CC[C@H](NC(=O)c1ccc(-c2cccs2)cc1)C(=O)NCc1ccccc1 [Example 11, N^1-benzyl-N^2-(4-thien-2-ylbenzoyl)-L-α-glutamine]	78	52
						~5.70		6.15	~5.30	~5.22	~5.70		~5.70		O=C(O)CC[C@H](NC(=O)c1ccc(-c2ccco2)cc1)C(=O)NCc1ccccc1 [Example 12A, N^1-benzyl-N^2-[4-(2-furyl)benzoyl]-L-α-glutamine]	41	18
